According to ChEMBL document CHEMBL1138084, “Synthesis and SAR of novel histamine H3 receptor antagonists” (Bioorg Med Chem Lett, 2006):

What was measured:
[1] = molecular target: Histamine H3 receptor (Homo sapiens, UniProt Q9Y5N1); assay: Displacement of [3H]N-alpha-methylhistamine from human cloned H3 receptor
[2] = molecular target: Histamine H3 receptor (Rattus norvegicus, UniProt Q9QYN8); assay: Displacement of [3H]N-alpha-methylhistamine from rat cloned H3 receptor
[3] = Inhibition of [3H]R-alpha-methylhistamine binding to brain of po dosed rat; assay type: functional, organism-based
[4] = Oral bioavailability in rat at 10 mg/kg; assay type: ADME, organism-based; settings: in vivo

Chain of Histamine H3 receptor (Homo sapiens, UniProt Q9Y5N1) (Q9Y5N1 whole entry): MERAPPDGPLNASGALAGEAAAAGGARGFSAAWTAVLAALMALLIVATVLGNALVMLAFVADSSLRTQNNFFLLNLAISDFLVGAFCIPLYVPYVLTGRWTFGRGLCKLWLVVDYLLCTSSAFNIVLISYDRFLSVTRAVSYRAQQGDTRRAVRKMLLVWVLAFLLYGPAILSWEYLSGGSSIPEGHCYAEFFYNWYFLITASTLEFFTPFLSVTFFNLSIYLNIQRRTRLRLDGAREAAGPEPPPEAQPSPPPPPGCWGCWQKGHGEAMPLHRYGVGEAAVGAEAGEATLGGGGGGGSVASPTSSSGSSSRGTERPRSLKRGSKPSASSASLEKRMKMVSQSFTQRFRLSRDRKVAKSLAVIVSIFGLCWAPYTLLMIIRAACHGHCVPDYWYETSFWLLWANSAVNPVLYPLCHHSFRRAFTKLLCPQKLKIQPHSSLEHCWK
Chain of Histamine H3 receptor (Rattus norvegicus, UniProt Q9QYN8) (Q9QYN8 whole entry): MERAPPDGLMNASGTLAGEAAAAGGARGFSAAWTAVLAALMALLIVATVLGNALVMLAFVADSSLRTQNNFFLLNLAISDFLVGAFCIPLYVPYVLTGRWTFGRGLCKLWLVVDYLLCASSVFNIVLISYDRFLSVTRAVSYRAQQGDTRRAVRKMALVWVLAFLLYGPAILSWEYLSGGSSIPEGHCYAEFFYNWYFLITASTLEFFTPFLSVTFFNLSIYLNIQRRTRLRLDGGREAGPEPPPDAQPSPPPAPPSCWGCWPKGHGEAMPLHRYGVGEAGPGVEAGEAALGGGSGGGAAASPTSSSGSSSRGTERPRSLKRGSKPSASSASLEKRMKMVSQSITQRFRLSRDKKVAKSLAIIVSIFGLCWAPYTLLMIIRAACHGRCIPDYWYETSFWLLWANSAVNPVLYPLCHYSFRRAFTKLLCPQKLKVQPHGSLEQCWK

Row | Ki ([1]; read-out: Ki) [nM] | Ki [2] [nM] | Structure (SMILES) | also measured
1 | 4.9 | 39.6 | CC(C)NC(=O)N1CCc2ccc(OCCCN3CCCCC3)cc2C1 | 
2 | 22.6 |  | O=C(c1cccs1)N1CCCc2ccc(OCCCN3CCCCC3)cc21 | 
3 | 31 |  | c1cc2c(cc1OCCCN1CCCCC1)CCCN2CC1CCCCC1 | 
4 | 187 |  | c1cc2c(cc1OCCCN1CCCCC1)N(CC1CCCCC1)CCC2 | 
5 | 8.1 |  | O=C(c1cccs1)N1CCc2ccc(OCCCN3CCCCC3)cc2C1 | 
6 | 59 |  | c1cc2c(c(OCCCN3CCCCC3)c1)CN(CC1CCCCC1)CC2 | 
7 | 19.4 | 36.7 | CC(=O)N1CCc2ccc(OCCCN3CCCCC3)cc2C1 | 
8 | 2.1 |  | O=C(c1cccs1)N1CCc2cc(OCCCN3CCCCC3)ccc2C1 | 
9 | 1.01 |  | c1cc2c(cc1OCCCN1CCCCC1)CCN(CC1CCCCC1)C2 | 
10 | 41 |  | CCN1CCCc2cc(OCCCN3CCCCC3)ccc21 | 
11 | 11.6 | 48.8 | CC(=O)N1CCc2ccc(OCCCN3CCCCC3)cc2CC1 | 
12 | 23.8 | 74.5 | CS(=O)(=O)N1CCc2ccc(OCCCN3CCCCC3)cc2C1 | 
13 | 0.35 | 0.46 | c1cc2c(cc1OCCCN1CCCCC1)CN(CC1CCCCC1)CC2 | 
14 | > 300 |  | O=C(c1cccs1)N1CCc2c(cccc2OCCCN2CCCCC2)C1 | 
15 | 156 |  | CCN1CCCc2ccc(OCCCN3CCCCC3)cc21 | 
16 | 2.9 | 70.1 | CS(=O)(=O)N1CCCc2cc(OCCCN3CCCCC3)ccc2C1 | 
17 | 54 |  | c1cc2c(cc1OCCCN1CCCCC1)CCCN2 | 
18 | > 300 |  | O=S(=O)(c1ccccc1)N1CCc2cccc(OCCCN3CCCCC3)c2C1 | 
19 | > 300 |  | O=C(c1cccs1)N1CCCc2cccc(OCCCN3CCCCC3)c21 | 
20 | 129 |  | c1cc2c(cc1OCCCN1CCCCC1)NCCC2 | 
21 | > 300 |  | O=S(=O)(c1ccccc1)N1CCc2c(cccc2OCCCN2CCCCC2)C1 | 

Row | Ki ([1]; read-out: Ki) [nM] | Ki [2] [nM] | Structure (SMILES) | also measured
22 | > 300 |  | c1cc2c(c(OCCCN3CCCCC3)c1)N(CC1CCCCC1)CCC2 | 
23 | 42.3 |  | CC(C)NC(=O)N1CCc2ccc(OCCCN3CCCCC3)cc2CC1 | 
24 | 7.3 |  | O=S(=O)(c1ccccc1)N1CCCc2ccc(OCCCN3CCCCC3)cc21 | 
25 | 0.53 |  | O=S(=O)(c1ccccc1)N1CCc2ccc(OCCCN3CCCCC3)cc2C1 | 
26 | 141 |  | c1cc(OCCCN2CCCCC2)c2c(c1)N(CC1CCCCC1)CCC2 | 
27 | 0.2 | 0.8 | c1ccc(CN2CCCc3cc(OCCCN4CCCCC4)ccc3C2)cc1 | 
28 | 15.4 |  | c1cc2c(c(OCCCN3CCCCC3)c1)CCN(CC1CCCCC1)C2 | 
29 | > 300 |  | O=C(c1cccs1)N1CCc2cccc(OCCCN3CCCCC3)c2C1 | 
30 | > 300 |  | CCN1CCCc2cccc(OCCCN3CCCCC3)c21 | 
31 | 17.1 | 32.5 | CC(C)NC(=O)N1CCCc2cc(OCCCN3CCCCC3)ccc2C1 | 
32 | 0.2 | 1.29 | CC(C)N1CCCc2cc(OCCCN3CCCCC3)ccc2C1 | IC50 [3]: 5.3 mg/kg; bioavailability [4]: ≥ 100%
33 | 0.34 | 0.56 | CCN1CCCc2cc(OCCCN3CCCCC3)ccc2C1 | 
34 | 0.53 | 0.97 | c1cc2c(cc1OCCCN1CCCCC1)CCN(CC1CCCCC1)CC2 | 
35 | > 300 |  | CCN1CCCc2c(OCCCN3CCCCC3)cccc21 | 
36 | 7.4 |  | O=S(=O)(c1ccccc1)N1CCc2cc(OCCCN3CCCCC3)ccc2C1 | 
37 | 12.1 | 38.1 | CS(=O)(=O)N1CCc2ccc(OCCCN3CCCCC3)cc2CC1 | 
38 | > 300 |  | c1cc2c(c(OCCCN3CCCCC3)c1)NCCC2 | 
39 | > 300 |  | O=S(=O)(c1ccccc1)N1CCCc2cccc(OCCCN3CCCCC3)c21 | 
40 |  |  | c1cc2c(cc1OCCCN1CCCCC1)CCNC2 | Ki [1]: 2.4
41 | 18 |  | O=S(=O)(c1ccccc1)N1CCCc2cc(OCCCN3CCCCC3)ccc21 | 
42 | > 300 |  | c1cc2c(c(OCCCN3CCCCC3)c1)CCCN2 | 

Row | Structure (SMILES) | Ki ([1]; read-out: Ki) [nM] | Ki [2] [nM] | also measured
43 | c1cc2c(c(OCCCN3CCCCC3)c1)CCNC2 | > 300 |  | 
44 | CCN1CCc2ccc(OCCCN3CCCCC3)cc2C1 | 0.34 | 0.64 | IC50 [3]: 1.1 mg/kg; bioavailability [4]: 69%
45 | CC(C)N1CCc2ccc(OCCCN3CCCCC3)cc2CC1 | 0.72 | 1.6 | 
46 | CCN1CCc2cccc(OCCCN3CCCCC3)c2C1 | 95.2 |  | 
47 | c1cc2c(cc1OCCCN1CCCCC1)CNCC2 | 0.6 |  | 
48 | CC(C)N1CCc2ccc(OCCCN3CCCCC3)cc2C1 | 0.17 | 0.89 | 
49 | c1cc2c(c(OCCCN3CCCCC3)c1)CNCC2 | 154 |  | 
50 | CCN1CCc2cc(OCCCN3CCCCC3)ccc2C1 | 0.54 |  | 
51 | CCN1CCc2c(cccc2OCCCN2CCCCC2)C1 | 84.2 |  | 
52 | CCN1CCc2ccc(OCCCN3CCCCC3)cc2CC1 | 0.26 | 1.1 | 
